The source of these data is PMC5820243, “Two inhibitors of yeast plasma membrane ATPase 1 (ScPma1p): toward the development of novel antifungal therapies” (Journal of Cheminformatics, 2018).

For orientation: pIC50 means −log10 of the IC50, conventionally taken in molar units.

pIC50: −log10 of the molar value.

This experiment concerns the target T1, ScPma1p (yeast plasma membrane ATPase 1) (Saccharomyces cerevisiae, UniProt P05030).
T1 construct: gene PMA1
Kind of experiment: cell-free vesicle-based ATP hydrolysis assay (ScPma1p-overexpressing vesicles, phosphate release). Type of experiment: biochemical.

T1 sequence (P05030 whole entry): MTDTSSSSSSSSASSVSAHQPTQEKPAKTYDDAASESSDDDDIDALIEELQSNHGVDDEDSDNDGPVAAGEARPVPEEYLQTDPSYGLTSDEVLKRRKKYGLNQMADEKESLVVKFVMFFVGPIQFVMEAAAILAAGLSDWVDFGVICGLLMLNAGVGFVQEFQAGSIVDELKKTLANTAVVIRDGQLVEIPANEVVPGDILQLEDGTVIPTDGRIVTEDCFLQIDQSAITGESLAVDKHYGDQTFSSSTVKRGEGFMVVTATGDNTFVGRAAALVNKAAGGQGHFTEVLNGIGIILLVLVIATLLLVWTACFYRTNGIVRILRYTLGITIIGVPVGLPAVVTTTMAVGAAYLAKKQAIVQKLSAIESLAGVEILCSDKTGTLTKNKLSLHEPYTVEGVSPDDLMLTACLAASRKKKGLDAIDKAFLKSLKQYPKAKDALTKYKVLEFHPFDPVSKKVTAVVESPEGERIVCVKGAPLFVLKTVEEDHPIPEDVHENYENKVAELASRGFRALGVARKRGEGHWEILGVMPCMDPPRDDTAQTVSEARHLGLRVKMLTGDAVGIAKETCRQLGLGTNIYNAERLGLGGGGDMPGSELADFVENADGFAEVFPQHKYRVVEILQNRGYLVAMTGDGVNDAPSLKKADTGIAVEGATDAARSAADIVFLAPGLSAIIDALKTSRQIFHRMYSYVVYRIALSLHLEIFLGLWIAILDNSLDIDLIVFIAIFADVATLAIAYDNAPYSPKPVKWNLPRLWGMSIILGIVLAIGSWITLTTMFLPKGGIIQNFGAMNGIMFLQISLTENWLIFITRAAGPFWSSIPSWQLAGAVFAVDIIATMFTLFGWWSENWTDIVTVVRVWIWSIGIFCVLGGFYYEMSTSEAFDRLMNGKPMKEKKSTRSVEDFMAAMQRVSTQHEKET

Turning to `Cn1ncc2c(Nc3cccc(Cl)c3)nc(Nc3cccc(Cl)c3)nc21` [NSC11668, 4-N,6-N-bis(3-chlorophenyl)-1-methylpyrazolo[3,4-d]pyrimidine-4,6-diamine], the pIC50 was 5.36.
